Marks after values point to notes of the source that are not given here.
What was measured:
Type in all cases: in vivo
[1] = tested on: RTX-induced edema of the mouse ear; test: Inhibition of resiniferatoxin (RTX)-induced inflammation (edema) of the mouse ear; settings: 30 min
Description: Induction of mouse ear edema can be conducted according to known methods. See Inoue, 1-f., N. Nagata, Y. Koshffiara (1993), which is herein incorporated by reference. Soritin compounds to be tested for anti-neurogenic inflammatory activity are topically applied in acetone to the ears of mice in a solution that includes the edema-causing irritant resiniferatoxin (RTX). RTX alone (0.1 μg/ear) or in combination with various dilutions of test compound are applied to both sides of the left ears (5 mice per treatment group) and acetone is applied to all right ears. After a 30-minute incubation, the mice are sacrificed, the ears removed, and bores taken and weighed. Edema is measured by subtracting the weight of the right ear (acetone control) from the weight of the left ear (treated). Results are recorded as % decrease (inhibition) or % increase (potentiation) in edema relative to the control group edema.
Soritin B was tested for anti-neurogenic inflammatory activity by topically applying in acetone to the ears of mice in a solution that includes the edema-causing irritant resiniferatoxin (RTX) as provided above. See Inoue, 1-f., N. Nagata, Y. Koshffiara (1993), which is herein incorporated by reference. Specifically, RTX alone (0.1 μg/ear) or in combination with various dilutions of Soritin B was applied to both sides of the left ears (5 mice per treatment group) and acetone was applied to all right ears. After a 30-minute incubation, the mice are sacrificed, the ears removed, and bores taken and weighed. Edema was measured by subtracting the weight of the right ear (acetone control) from the weight of the left ear (treated). Results were recorded as % decrease (inhibition) or % increase (potentiation) in edema relative to the control group edema.

test ears of mice = test: Soritin B coloration and irritation when applied to mouse ear skin
[2] = tested on: PMA-induced edema of the mouse ear; test: Inhibition of PMA-induced inflammation (edema) of the mouse ear; settings: 3 h 20 min, in mg (unit assumed)
Description: (§1) The test compound made by the method of the present invention and a known inflammatory agent, phorbol myristate acetate (PMA), are topically applied simultaneously to the left ears of mice. Three hours and 20 minutes following application, the mice are sacrificed. Both left ears and right ears are removed and standard sized bores taken. Edema (inflammation) is measured as the difference in weight between left and right ears. See Van Arman, C. G. (1974) Clin. Pharmacol. Ther. 16:900–904, which is herein incorporated by reference.
as §1, with “Soritin B and” for “The test compound made by the method of the present invention and”, “(PMA), were” for “(PMA), are”, “mice were” for “mice are”, “ears were” for “ears are”, “(inflammation) was” for “(inflammation) is”

## COC(=O)C(c1c[nH]c2ccccc12)c1c[nH]c2ccccc12 [Soritin B, bis-(1H-indol-3-yl)-acetic acid methyl ester]
[1]; 3.12 μg/ear topical in acetone with RTX 0.1 μg/ear
  Mean edema (weight of left ear minus right ear bores): 9.1
[1]; 6.25 μg/ear topical in acetone with RTX 0.1 μg/ear
  Mean edema (weight of left ear minus right ear bores): 6.5*
[1]; 12.5 μg/ear topical in acetone with RTX 0.1 μg/ear
  Mean edema (weight of left ear minus right ear bores): 3.2*
[1]; 25 μg/ear topical in acetone with RTX 0.1 μg/ear
  Mean edema (weight of left ear minus right ear bores): 1.7*
[1]; 50 μg/ear topical in acetone with RTX 0.1 μg/ear
  Mean edema (weight of left ear minus right ear bores): 1.0*
Test ears of mice; 50 μg/ear, overnight exposure, compared to controls
  Redness or swelling after overnight exposure: did not result in any discernable redness or swelling
Test ears of mice; in acetone alone and in combination with PMA or RTX, from beginning to end of the experiments
  Coloration on test ears: did not exhibit any discernable coloration
[2]; 3.12 μg/ear topical with PMA 2.0 μg/ear
  Mean edema (difference in weight between left and right ear bores): 10.0**
[2]; 6.25 μg/ear topical with PMA 2.0 μg/ear
  Mean edema (difference in weight between left and right ear bores): 9.7**
[2]; 12.5 μg/ear topical with PMA 2.0 μg/ear
  Mean edema (difference in weight between left and right ear bores): 8.6*
[2]; 25 μg/ear topical with PMA 2.0 μg/ear
  Mean edema (difference in weight between left and right ear bores): 5.9*
[2]; 50 μg/ear topical with PMA 2.0 μg/ear
  Mean edema (difference in weight between left and right ear bores): 3.4*
